SMILES strings stand for the structures.

The target of assay [1] is papain (Carica papaya, UniProt P00784). Particulars: BAPA as papain substrate; cited from earlier work.
For assay [2], the system named is K. pneumoniae clinical isolates. As to the kind of experiment: standard susceptibility testing (disc diffusion). The format is cell-based.
Assay [3] deals with E. coli clinical isolates. Kind of assay: standard susceptibility testing (disc diffusion). Particulars: for standard susceptibility testing: E. coli isolate SF334 (blaTEM-1). Format: cell-based. (In general: In agar diffusion tests the substance spreads into inoculated agar from a disc or well.)
Assay [4] deals with E. coli isolated from CA-UTI urine samples. As to the kind of experiment: susceptibility testing of E. coli cultured from CA-UTI urine samples. Format: cell-based. The note with it: 23 of 34 E. coli from CA-UTI samples. As for the experimental part:
In order to establish the threshold Δλ405 of DETECT, that delineates β-lactam-susceptible from β-lactam-resistant urine samples, we simultaneously analyzed urine samples by traditional microbiology techniques as a standard for comparison (raw Δλ405 of DETECT values shown in Table S1). As such, urine samples were cultured for identification of E. coli, and E. coli isolates were tested for susceptibility to ampicillin and cephalexin. Samples were separated for analyses based on susceptibility or resistance to these agents, and an average Δλ405 value was calculated for each group. The average Δλ405 values corresponding to β-lactam-resistant and β-lactam-susceptible samples are shown in FIG. 5B, where the average Δλ405 of samples defined by traditional susceptibility analyses as resistant to ampicillin or cephalexin was 1.026, and the average Δλ405 in samples containing susceptible E. coli was 0.2990 (p=0.00048, two-tailed t-test). Finally, the threshold value was defined as 0.616, three standard deviations greater than the average Δλ405 of β-lactam-susceptible isolates. Therefore, samples with Δλ405>0.616 were defined as “positive” by DETECT (or resistant to early-generation β-lactams), and samples with Δλ405<0.616 were defined as “negative” by DETECT (or susceptible to β-lactams), the latter of which would qualify for treatment with an early-generation β-lactam. […]

For assay [5], the target named is recombinant TEM-1 β-lactamase (Escherichia coli, UniProt P62593). The note with it: recombinant TEM-1, absorbance 486 nm.
recombinant TEM-1 β-lactamase, sequence (P62593 24-286 limits assumed): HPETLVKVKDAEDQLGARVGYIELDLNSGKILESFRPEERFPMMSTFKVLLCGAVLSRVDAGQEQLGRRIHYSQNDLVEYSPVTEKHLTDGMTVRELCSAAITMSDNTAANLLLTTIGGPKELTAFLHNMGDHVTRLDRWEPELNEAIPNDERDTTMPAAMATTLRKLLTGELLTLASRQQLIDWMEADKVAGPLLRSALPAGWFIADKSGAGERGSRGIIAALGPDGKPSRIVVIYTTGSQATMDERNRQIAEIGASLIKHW
Text: To verify the targeting capacity and establish the amplification capacity of thiophenol-β-lac, we first targeted the β-lactamase TEM-1, which mediates resistance to β-lactam antibiotics, such as ampicillin We compared the sensitivity of DETECT against the standard chromogenic β-lactamase probe nitrocefin (FIG. 3)^19. Recombinant TEM-1 activity was quantified by measuring the formation of the hydrolytic chromogenic products from DETECT or nitrocefin in a time-dependent manner with a microplate reader (DETECT hydrolytic product=405 nm, and nitrocefin hydrolytic product=486 nm).
(B) Time-dependent plot of β-lactamase activity assay performed with DETECT, where varied concentrations of recombinant TEM-1 were incubated with the DETECT system in a 96-well plate for 90 min. The absorbance at 405 nm was collected in 5 min intervals and plotted against time. (C) Photograph of color change caused from DETECT amplification in wells where TEM-1 was present at increasing concentrations from right to left. The rightmost well is a control well where all the components were incubated in the absence of TEM-1. (D) Time-dependent biochemical experiment where varied concentrations of TEM-1 were incubated with the standard β-lactamase probe nitrocefin in a 96-well plate, and the respective absorbance values were collected on a microplate reader (486 nm). […]
For assay [6], the system named is TEM-1-producing E. coli clinical isolate SF334. The format is cell-based. The note with it: E. coli isolate SF334 (TEM-1).
Experimental: Whole-cell suspensions of SF334 were prepared as described above. First, we confirmed β-lactamase activity in the TEM-1-producing clinical isolate by incubating 10^6 CFU of SF334 with the DETECT components (FIG. 4A), then collecting absorbance values at 405 nm after 45, 60, 120, and 180 min of incubation. […] The analogous experiment was performed with nitrocefin, where whole-cell suspensions of SF334 and SF505 were incubated with nitrocefin. As indicated in the literature, samples were incubated with nitrocefin for up to only 30 min to minimize background signal associated with non-selective hydrolysis^14.
Subsequent studies were performed to establish the detection limit of DETECT relative to nitrocefin, by serially diluting isolate SF334 in 100-fold increments. […]
(A) Schematic representation of the experiments performed with E. coli clinical isolates, where bacterial suspensions were incubated with DETECT components thiophenol-β-lac, disulfide-protected papain, and BAPA in a 96-well plate. Following 1 h of incubation, the sample wells were analyzed with a microplate reader and the absorbance at 405 nm was collected. […] (C) Plot displaying the signal outputs generated by DETECT in the presence of varying quantities of SF334, which was carried out to define the signal threshold of DETECT compared to the current standard, nitrocefin. […]
[7] abbreviates: K. pneumoniae isolate ATCC 700603, β-lactamase gene SHV-18 (ESBL).
The mark [8] stands for this setting: K. pneumoniae isolate BR1, β-lactamase gene SHV-185.
The mark [9] stands for this setting: K. pneumoniae isolate BR27, β-lactamase gene SHV-11.
Where [10] appears, read: K. pneumoniae isolate BR28, β-lactamase gene KPC-2, SHV-11.
The mark [11] stands for this setting: K. pneumoniae isolate BR45, β-lactamase gene SHV-38/168.
The mark [12] stands for this setting: K. pneumoniae isolate BR50, β-lactamase gene SHV-62.
Where [13] appears, read: K. pneumoniae isolate BR52, β-lactamase gene SHV-132.
[14] abbreviates: K. pneumoniae isolate BR313, β-lactamase gene SHV-83/187.
The mark [15] stands for this setting: K. pneumoniae isolate SF412, β-lactamase gene ND.
Where [16] appears, read: K. pneumoniae isolate SF519, β-lactamase gene ND.
Setting [17] is: E. coli isolate BE30, β-lactamase gene SHV-1.
[18] abbreviates: E. coli isolate BE115, β-lactamase gene OXA-1.
The mark [19] stands for this setting: E. coli isolate BE372, β-lactamase gene TEM-1 (1b).
The mark [20] stands for this setting: E. coli isolate BE527, β-lactamase gene SHV-1.
[21] abbreviates: E. coli isolate BE1004, β-lactamase gene TEM-1 (1c).
[22] abbreviates: E. coli isolate BE1173, β-lactamase gene TEM-1 (1b).
[23] abbreviates: E. coli isolate BE1335, β-lactamase gene SHV-1.
Setting [24] is: E. coli isolate BR2, β-lactamase gene KPC-2.
Setting [25] is: E. coli isolate SF105, β-lactamase gene TEM-1.
Setting [26] is: E. coli isolate SF141, β-lactamase gene CMY-2.
Where [27] appears, read: E. coli isolate SF148, β-lactamase gene CTX-M-14.
[28] abbreviates: E. coli isolate SF207, β-lactamase gene CMY-2.
Where [29] appears, read: E. coli isolate SF384, β-lactamase gene ND.
[30] abbreviates: E. coli isolate SF410, β-lactamase gene CTX-M-15.
The mark [31] stands for this setting: E. coli isolate SF487, β-lactamase gene CTX-M-14.
The mark [32] stands for this setting: E. coli isolate SF674, β-lactamase gene CTX-M-15.

papain, sequence (P00784 134-345): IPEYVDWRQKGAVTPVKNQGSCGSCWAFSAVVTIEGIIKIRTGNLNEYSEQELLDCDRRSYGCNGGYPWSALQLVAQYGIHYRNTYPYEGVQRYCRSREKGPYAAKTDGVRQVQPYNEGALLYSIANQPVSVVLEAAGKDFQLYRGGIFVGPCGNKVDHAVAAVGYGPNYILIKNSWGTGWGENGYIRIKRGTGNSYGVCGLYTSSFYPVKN

`N=C(N)NCCC[C@H](NC(=O)c1ccccc1)C(=O)Nc1ccc([N+](=O)[O-])cc1` [BAPA, N-benzoyl-L-arginine-p-nitroaniline]: in assay [1], the “KCAT value with papain” value is 0.7 to 0.8 s⁻¹.

For `CC1(C)S[C@@H]2[C@H](NC(=O)[C@H](N)c3ccccc3)C(=O)N2[C@H]1C(=O)O` [Ampicillin, ampicillin], the Ampicillin susceptibility result in assay [2] (setting [7]), in assay [2] (setting [8]), in assay [2] (setting [9]), in assay [2] (setting [10]), in assay [2] (setting [11]) and in assay [2] (setting [12]) was “R” in each case. For the same compound, the Ampicillin susceptibility result in assay [2] (setting [13]) is “R”; in assay [2] (setting [14]) it was “R”; in assay [2] (setting [15]), “S”; in assay [2] (setting [16]), “S”; in assay [3] (setting [17]) it was “R”; in assay [3] (setting [18]), “R”. In addition, the Ampicillin susceptibility result in assay [3] (setting [19]), in assay [3] (setting [20]), in assay [3] (setting [21]), in assay [3] (setting [22]), in assay [3] (setting [23]) and in assay [3] (setting [24]) was “R” in each case. Also, the Ampicillin susceptibility entry in assay [3] (setting [25]) is reported as “R”; in assay [3] (setting [26]), “R”; in assay [3] (setting [27]) it was “R”; in assay [3] (setting [28]) it was “R”; in assay [3] (setting [29]), “S”; in assay [3] (setting [30]), “R”. The Ampicillin susceptibility result in assay [3] (setting [31]) and in assay [3] (setting [32]) was “R” throughout. In addition, in assay [3], the standard susceptibility testing entry is “resistance”. For the same compound, the “E. coli isolates susceptible” value in assay [4] is on record as 68%.

`O=C(Cc1cccs1)N[C@@H]1C(=O)N2C(C(=O)O)=C(/C=C/c3ccc([N+](=O)[O-])cc3[N+](=O)[O-])CS[C@H]12` [nitrocefin]: in assay [5], the “limit of detection of TEM-1” value is given as 4 nM. Further, the “suspension of SF334 needed to identify β-lactamase activity above background” value in assay [6] was 10^7 CFU/mL.

With `CC1=C(C(=O)O)N2C(=O)[C@@H](NC(=O)[C@H](N)c3ccccc3)[C@H]2SC1` [Cephalexin, cephalexin], the Cephalexin susceptibility entry in assay [2] (setting [7]) is “R”; in assay [2] (setting [8]) it was “S”; in assay [2] (setting [9]), “S”; in assay [2] (setting [10]) it was “R”; in assay [2] (setting [11]) it was “S”; in assay [2] (setting [12]), “S”. The Cephalexin susceptibility entry in assay [2] (setting [13]), in assay [2] (setting [14]), in assay [2] (setting [15]), in assay [2] (setting [16]), in assay [3] (setting [17]) and in assay [3] (setting [18]) was “S” throughout. Besides, the Cephalexin susceptibility entry in assay [3] (setting [19]) was “R”; in assay [3] (setting [20]) it was “S”; in assay [3] (setting [21]), “S”; in assay [3] (setting [22]), “S”; in assay [3] (setting [23]) it was “S”; in assay [3] (setting [24]), “R”. Also, the Cephalexin susceptibility result in assay [3] (setting [25]) is on record as “R”; in assay [3] (setting [26]), “R”; in assay [3] (setting [27]) it was “R”; in assay [3] (setting [28]), “R”; in assay [3] (setting [29]) it was “S”; in assay [3] (setting [30]), “R”. Further, the Cephalexin susceptibility entry in assay [3] (setting [31]) and in assay [3] (setting [32]) was “R” throughout. For the same compound, in assay [3], the standard susceptibility testing entry is on record as “resistance”.

The values are drawn from patent publication US11385229B2, “Amplification technology using dual enzyme cascade detection” (The Regents of the University of California, priority 2017, dated 2022).
